{"source": "patent US11202814B2", "about": "“Compositions for atopic skin” (INFINITEC ACTIVOS, S.L., priority 2018, dated 2021)", "test_system": "PGE2 release", "assay": "Inhibitory effect on PGE2 release in cell culture, inflammation induced by IL1a", "format": "cell-based, human", "experimental": "The inhibitory effect on IL1a inflammatory induction of the non-encapsulated composition of Pinus pinaster bark extract and curcumin, capsules loaded with Pinus pinaster bark extract and curcumin, unloaded capsules, non-encapsulated composition of Pinus pinaster bark extract and non-encapsulated composition of curcumin were analysed on human dermal fibroblasts.\nHuman dermal fibroblasts (LIFE TECHNOLOGIES), seeded in a 96-well plate up to 80% confluency, were treated with the following compositions dissolved in medium DMEM (Dulbecco's Modified Eagle Medium) to a total volume of 1 ml: • a) pine bark extract (1%) • b) curcumin (0.01%) • c) Phosphotech phospholipids (having the same composition has described in example 2) (4%) • d) curcumin (0.01%)+pine bark extract (1%) • e) capsules (curcumin (0.01%)+pine bark extract (1%)+Phosphotech phospholipids (having the same composition has described in example 2) (4%)) for 48 hours. […] After 24 hours inhibitory effect on PGE2 in culture cell was measured using prostaglandin E2 EIA kit (Prostaglandin E2 EIA kit—Monoclonal (Item: 514010) Cayman Chemical).\nThe results are provided in Table 4 below wherein the PGE2 release is expressed in pg/ml. The reduction vs IL1a-induced fibroblasts is calculated as the result of PGE2 obtained for each treatment/the result of PGE2 obtained for IL1a-induced fibroblasts (without any treatment). […]", "data": [{"substance": "curcumin [Composition b]", "values": [{"measurement": "Calculated reduction vs IL1a-induced fibroblasts", "setting": "PGE2 of treatment / PGE2 of IL1a-induced fibroblasts (2170 pg/ml)", "value": 0.232}, {"measurement": "PGE2", "setting": "human dermal fibroblasts treated 48 hours, IL1a 5 pM, untreated IL1a-induced fibroblasts 2170, control 471 pg/ml", "value": 503, "unit": "pg/mL"}]}]}
